The source of these data is patent US10232023B2, “Methods for treatment of and prophylaxis against inflammatory disorders” (THE UNIVERSITY OF UTAH RESEARCH FOUNDATION, priority 2013, dated 2019).

“Also recorded” adds a separate entry of the source.

The subject of test [1] is human PMNs incubated with dengue virus. The test can be described thus: Dengue virus-induced NET formation by human PMNs. It counts as cell-based. The conditions noted are these: pretreatment 1 nM, 1 hour; dengue virus 0.05 MOI. As for the experimental part: Mock incubation using dengue virus media without infection served as a control. Dengue virus induced NET formation by PMNs from human adults.
Primary PMNs isolated from healthy adults (2×10^6 cells/mL) were incubated with mock infection buffer or live dengue virus (MOI 0.05), as for the live cell imaging discussed above. After a 1 hour incubation, the infected PMNs were fixed with 2% p-FA for 10 minutes prior to incubation with fluorescently-labeled, cell permeable and cell impermeable DNA dyes, and imaged as for live cell imaging using confocal microscopy.

The subject of test [2] is outbred Swiss mice, murine CL/P model. The test can be described thus: Survival in cecal ligation and puncture (CL/P) model. The conditions noted are these: 10 mcg/kg IP, 1 hour prior and 6 hours after surgery, vs CL/P control, p=0.06. The format is in vivo, mouse. As for the experimental part: FIG. 11 is a graph tracking survival of outbred Swiss mice in various treatment arms of a murine CL/P model. CRISPP treated mice (10 mcg/kg) received 2 doses intraperitoneally; one given 1 hour prior to surgery or sham surgery and one dose given 6 hours after surgery. The same dose, delivery route, and schedule were followed for the scrambled peptide control mice. Ten mice were assessed in each of the CL/P groups.
(§1) Survival of outbred Swiss mice was tracked in various treatment arms following intraperitoneal injection of either LPS (20 mg/kg) or E. coli (4×10^7 bacteria), as shown in FIGS. 10A and 10B. […] Six mice were assessed in both groups: LPS+CRISPP and LPS+scrambled control peptide. […] Ten mice were assessed in each group: no treatment, E. coli+CRISPP, and E. coli+scrambled control peptide. […] Referring to FIG. 11, CRISPP was also evaluated in a murine model of polymicrobial infection caused by cecal ligation and puncture (CL/P). […] Ten mice were assessed in each of the CL/P groups. […]
(§2) Animals were treated with CRISPP (10 mg/kg), nNIF (10 mg/kg), or SCR (10 mg/kg) by i.p. injection 1 hour prior to and 6 hours after infection (E. coli, 4.5×10^7 cfu/mouse, i.p. injection) or stimulation (LPS, 25 mg/kg, i.p. injection). […] Survival was assessed over 6 days at 6 hour to 12 hour intervals.

The subject of test [3] is human PMNs incubated with live S. aureus. The test can be described thus: NET formation by human PMNs incubated with live S. aureus. As to conditions: pretreatment 1 nM; live S. aureus (MOI 100). The format is cell-based. As for the experimental part: A human histone H3 release assay was used to quantify NET formation (n=2). NET-inhibitory activity of CRISPP was tested using in vitro models of two human infectious diseases: Staphylococcus aureus bacteremia and dengue fever.
Qualitative assessment of NET formation was performed as previously referenced in Yost et al., Blood, 2009, 113: 6419-6427 and McInturff et al., Blood, 2012, 120: 3118-3125. Briefly, primary PMNs isolated from preterm infants, healthy term infants, and healthy adults (2×10^6 cells/mL) were incubated with control buffer or stimulated with LPS (100 ng/mL), PMA (20 nM), or S. aureus bacteria (MOI 100) for 1 hour at 37° C. in 5% CO2/95% air on glass coverslips coated with poly-L-lysine. For selected experiments, primary PMNs were pre-incubated with autologous plasma, cord blood plasma, nNIF (1 nM), CRISPP (1 nM), or SCR (1 nM) for 1 hour prior to imaging. After pre-incubation and/or stimulation, PMNs were gently washed with PBS and incubated with a mixture of cell permeable (SYTO Green, MOLECULAR PROBES) and impermeable (SYTOX Orange, MOLECULAR PROBES) DNA fluorescent dyes. Confocal microscopy was accomplished using a FV300 1×81 Microscope and FLUOVIEW software (OLYMPUS). Both 20× and 60× objectives were used. […]
Supernatant total histone H3 content was determined as previously referenced in McInturff et al., Blood, 2012, 120: 3118-3125. […]

For test [4], the system named is C57BL6 mice, intraperitoneal injection of LPS. Briefly: Survival after intraperitoneal LPS. The format is in vivo, mouse. As to conditions: LPS 20 mg/kg IP; 10 mcg/kg/dose IP, 1 hour prior and 6 hours after; vs LPS+scrambled peptide, p=0.02. As to the method:
FIG. 10A is a graph tracking survival of C57BL6 mice in various treatment arms following intraperitoneal injection of LPS (20 mg/kg). CRISPP-treated mice (10 mcg/kg/dose) received 2 doses intraperitoneally; one given 1 hour prior to infection and one dose given 6 hours after infection. The same dose, delivery route, and schedule were followed for the scrambled peptide control mice. Six mice were assessed in both groups.
as §1, §2

On to “Cancer-Associated SCM-Recognition, Immune Defense Suppression, and Serine Protease Protection Peptide [CRISPP, nNIF-related peptide (nNRP)]”, for which the “NET formation induced by dengue virus” value in test [1] was “completely blocked NET formation; also recorded: inhibited NET formation”. Besides, the results for the Survival entry in test [2] and in test [4] were “approached statistical significance” and “statistically greater”, respectively. The “NET formation induced by S. aureus” value in test [3] is given as “completely blocked NET formation; also recorded: inhibited NET formation”.
